Reference: article PMC9935382, “Sorting nexin-dependent therapeutic targeting of oncogenic epidermal growth factor receptor” (Cancer Gene Therapy, 2022)
“Also recorded” adds a separate entry of the source.

Legend:
BT20 cells [1] = assay: BT20 mammosphere formation; assay type: cell-based
Description: 20,000 BT20 cells were suspended in mammosphere media (15 mL Mammocult media supplemented with 1.7 mL Proliferation supplement, 1.5 μL hydrocortisone, 30 μL heparin, and 150μL penicillin/streptomycin) and plated onto a low adhesion 6-well plate. After one week the number of spheres per well were counted. Cells from selected wells were then dissociated in trypsin EDTA and plated with fresh mammosphere media to develop secondary mammospheres.
(§1) Cells were then fractionated and verified by HSP90 cytosolic protein, Bap31 membrane protein, or HDAC nuclear protein. […] After the second week, the number of secondary mammospheres were counted.
These spheres were then disassociated and re-plated to form secondary mammospheres.

[2] = test system: nuclear EGFR in MDA-MB-468 cells; assay: Nuclear EGFR by subcellular fractionation; assay type: cell-based; details: serum starved, 20 ng/mL EGF and peptide, 2 h; subcellular fractionation and immunoblot
Description: Cells were trypsinized and washed with PBS, followed by centrifugation at 100 g (4 °C) for 5 minutes. The cell pellet was resuspended in ice-cold cytosolic fraction buffer (150 mM NaCl, 50 mM HEPES pH 7.4, 25 ug/mL digitonin, with Complete protease inhibitors (Roche) and phosphatase inhibitors (2.0 mM sodium orthovanadate, 10.0 μM ammonium molybdate and 10.0 mM sodium fluoride) and tumbled at 4 °C for 10 minutes, followed by centrifuged at 2000 g, 4 °C for 10 minutes and the cytosolic fraction transferred retained for analysis as the cytosolic fraction. The pellet was then washed twice in ice-cold PBS, resuspended in membrane fraction buffer (150 mM NaCl, 50 mM HEPES pH 7.4, 1% NP-40, with protease and phosphatase inhibitors) and incubated on ice for 30 minutes. […]
Lysates were prepared as described, protein concentrations determined by BCA assay (Pierce) and resolved via standard SDS-PAGE [18]. Gels were transferred to either PVDF (Immobilon P or Immobilon FL) membrane and probed with the indicated antibodies and analyzed by either HRP-linked secondaries (Pierce) or IRDye secondaries (Li-Cor), followed by development in Dura Signal (Pierce) or IR (Licor). […]
as §1

T47D cells = assay: MTT cell viability, T47D; assay type: cell-based; details: 3 days, ER+ breast cancer line
Description: (§2) 2 × 10^3 cells were plated per well in a 96 well plate and left to adhere overnight. The following day, drug treatments were started and continued for 3 days. To measure the viability of the remaining cell population, 10% 3-(4,5-dimethylthiazol-2-yl)-2,5-diphenyltetrazolium (MTT) in media was added and incubated for 2 hours and conversion of MTT to formazan at 540 nm using a biotech Synergy LX plate reader.
(§3) A–G Cells were plated in a 96-well plate at 2000 cells per well. […] Cell viability was then measured with an MTT assay, viability of treated cells were compared with the vehicle control. H MDA-MB-468 cells were plated and incubated+/− IPTG for 2 days prior to drug treatment to induce expression of an EGFR-targeted shRNA.

[3] = test system: mammary fat pad and tumors of WAP-TGFα mice; assay: Histopathology (H+E) of WAP-TGFα mouse tissues; assay type: in vivo; details: for Tumor pathology: tumor site in value
Text: The transgenic mouse line WAP-TGFα (The Jackson Laboratory; Tg(WapTgfa)215Bri) were back crossed to C57BL/6 J background (N8). WAP-TGFα heterozygous males were bred with C57BL/6 J females to generate study animals and offspring were genotyped using primers against the WAP-TGFα transgene. WAP-TGFα heterozygous females were housed continuously with C57Bl/6 J males to induce pregnancy, resulting in transgene expression. […] To ensure randomized treatment arms we added mice to alternating treatment arms as they developed tumors, starting with the control cPTD4 arm. When a second mouse from the same litter developed a tumor, that animal was added to the opposite arm from its litter mate. The researchers were not blinded to the treatment arms. […] Once entered, mice were weighed, tumors measured, and injections given intravenously at 10 μg/g body weight 3x/week for 4 weeks. […] Upon sacrifice, all tumors were collected and fixed in 10% formalin; a portion of each tumor was homogenized in tissue lysis buffer to form tissue protein lysates. Tissues were paraffin-embedded and sectioned by the Tissue Acquisition and Cell Molecular Analysis Shared Resource at the University of Arizona Cancer Center. The University of Arizona IACUC committee performs oversite of animal experimental protocols with coordination from a veterinarian in compliance with AAALAC.
Mice were bred continuously to induce transgene expression and palpated weekly for tumor formation. […] A Changes in tumor size from entry into study until end of study are shown for each individual tumor, (*) indicate tumors that entered the study at size greater than 500 mm^3, all other tumors entered the study at ~100 mm^3. B a Kaplan-Meier survival curve was generated showing when mice were sacrificed by either reaching tumor burden (2000 mm^3) or the end of the study (p = 0.0002). C Upon sacrifice tumors were harvested and fixed in 10% formalin and embedded in paraffin. FFPE blocks were sectioned at […] and stained with hematoxylin and eosin and imaged at 20x. D Protein lysates were generated from tumors upon the sacrifice and probed for the indicated proteins.
Supplementary Figure 3. Upon sacrifice, tissues were harvested and fixed in 10% formalin. Tissues were embedded, sectioned, and stained with H+E by the Tissue Acquisition and Cell Molecular Analysis Shared Resource (TACMASR) at the University of Arizona Cancer Center. H+E slides were then sent to the UC Davis pathology lab for pathological analysis.

CHO cells = assay: MTT cell viability, CHO; assay type: cell-based, Chinese hamster; details: CHO cells lack EGFR expression, 3 days
Description: as §2, §3
(§4) Supplementary Figure 1. A. BT20 triple negative breast cancer cells were treated with SNX1.1, 1.2, or 1.3 for 3 days and their viability was measured via MTT analysis. B. CHO cells were treated with PTD4 or SNX1.3 for 3 days and their viability was measured via MTT analysis.

BT20 cells [4] = assay type: cell-based; details: 3 days, MTT
Description: as §2, §3, §4

MCF10A cells = assay: MTT cell viability, MCF10A; assay type: cell-based; details: immortalized breast epithelial line, 3 days
Description: as §2, §3

## CC[C@H](C)[C@H](NC(=O)[C@@H](NC(=O)[C@H](Cc1c[nH]cn1)NC(=O)[C@H](CC(N)=O)NC(=O)[C@H](CCCCN)NC(=O)[C@H](C)NC(=O)[C@H](CCCNC(=N)N)NC(=O)[C@H](C)NC(=O)[C@H](CCC(N)=O)NC(=O)[C@H](CCCNC(=N)N)NC(=O)[C@H](C)NC(=O)[C@H](C)NC(=O)[C@H](C)NC(=O)[C@H](CCCNC(=N)N)NC(=O)[C@H](C)NC(=O)[C@H](Cc1ccc(O)cc1)NC(C)=O)C(C)C)C(=O)N[C@@H](CCCCN)C(=O)N[C@@H](Cc1ccc(O)cc1)C(=O)N[C@@H](CC(C)C)C(=O)N[C@@H](CCC(=O)O)C(=O)N[C@H](C(=O)N[C@@H](CC(C)C)C(=O)N[C@@H](CC(C)C)C(=O)N[C@@H](Cc1ccc(O)cc1)C(=O)N[C@@H](CO)C(=O)N[C@@H](CCC(N)=O)C(=O)N[C@@H](CCC(N)=O)C(=O)N[C@@H](CCC(N)=O)C(=O)N[C@@H](CC(C)C)C(=O)N[C@@H](C)C(=O)N[C@@H](CCCCN)C(=O)N[C@@H](Cc1ccc(O)cc1)C(=O)N[C@@H](Cc1c[nH]c2ccccc12)C(=O)N[C@@H](CCC(=O)O)C(=O)N[C@@H](C)C(=O)N[C@@H](Cc1ccccc1)C(=O)N[C@@H](CC(C)C)C(N)=O)[C@@H](C)O [cSNX1.3]
BT20 cells [1]; 1 week treatment, low adhesion plate
  primary mammosphere formation: no mammospheres were formed
BT20 cells [1]; cSNX1.3 in first week, then cPTD4 or vehicle in second week
  secondary mammosphere formation, treated in the first week: reduction in sphere formation
BT20 cells [1]; treated during second week
  secondary mammosphere formation, treated in the second week: no mammosphere formation
[2]
  nuclear-localized EGFR: inhibits the nuclear localization of EGFR; also recorded: loss of nuclear-localized EGFR
T47D cells
  sensitivity (cell viability): sensitive
[3]; mouse 6.13.7 (cSNX1.3)
  Fat Pad pathology: Mammary adenomatous to lobular (atypical) hyperplasia; In situ mammary adenocarcinoma
  Tumor pathology: (R2) Mammary adenocarcinoma (cystic)
[3]; mouse 6.4.L (cSNX1.3)
  Fat Pad pathology: Mammary adenomatous to lobular (atypical) hyperplasia; In situ mammary adenocarcinoma; Focal granulomatous mastitis
  Tumor pathology: (L4) Mammary adenomatous to lobular (atypical) hyperplasia; Adenoma; In situ mammary adenocarcinoma; also recorded: (R4) Mammary adenomatous to lobular (atypical) hyperplasia; Cystic ectasia
[3]; mouse 6.9.LR (cSNX1.3)
  Fat Pad pathology: Mammary adenomatous to lobular (atypical) hyperplasia; In situ mammary adenocarcinoma
  Tumor pathology: (L4) Mixed malignant tumor (fibrous component)
[3]; mouse 7.1.9 (cSNX1.3)
  Fat Pad pathology: Mammary adenomatous to lobular (atypical) hyperplasia; In situ cystic (small) mammary adenocarcinoma
  Tumor pathology: (L4) Mammary adenomatous to lobular (atypical) hyperplasia; also recorded: (R4) Mammary adenocarcinoma
CHO cells
  impact on cell viability / growth: almost no impact
BT20 cells [4]
  inhibition of cell survival compared with Sapitinib: more effective than Sapitinib
MCF10A cells
  impact on cell viability / growth: almost no impact
